The source of these data is patent US12427155B2, “Treatment for tau-related diseases” (The Regents of the University of California, priority 2019, dated 2025).

For data set [1], the system named is pThr231Tau/tTau. As to the kind of experiment: pThr231Tau/tTau ratio (ELISA) in APP^dp iPSC-derived FAD neurons. The settings on record: for abrogation of the atorvastatin-induced decrease in pThr231Tau/tTau ratio: 3 days; for pThr231Tau/tTau, dosage effect: dose range. The class given is cell-based, human.
The subject of data set [2] is APP^dp1-6 neurons. As to the kind of experiment: lipid analysis of APP^dp1-6 neurons. The settings on record: 3 days. The data set is classed as cell-based, human.
A further data set has as its system Tau (PHF-1). As to the kind of experiment: PHF-1 (Tau) staining of 4RTau-tg mouse brain sections. The class given is in vivo. To be noted: 4R Tau-tg mice, 25 mg/kg daily oral gavage, 3 months.
Data set [3] concerns pThr231Tau/tTau. Nature of the data set: pThr231Tau/tTau in non-demented control (NDC) neurons. The settings on record: NDC neurons with two copies of APP.
Another data set has as its system Aβ42 secretion. Nature of the data set: secreted Aβ42 in APP-Δcholesterol neurons. The data set is classed as cell-based, human. The settings on record: APP E693A and F691A+E693A neurons, 10 μM, 3 days. The text has this:
FIGS. 4A-4F show regulation of Aβ by CE Is Mediated by a Cholesterol Binding Domain in APP. […] Green indicates amino acid sequence. Red arrow indicates CRISPR/Cas9 cut site. […] Two E693A (line 3D9 and 2B2) and one F691A+E693A line (line D12) were generated, as well as two non-gene-edited, but clonally expanded, WT lines (B10 and B11). FIGS. 4D-4F show measurements made using APP-Δcholesterol neurons with the following genotypes: WT (average from 2 independent lines), E693A (2 independent lines), and F691A+E693A (1 line) (mean±SEM, n R 3 per line). (D) Relative secreted Ab42 levels in conditioned media from purified CD184^−, CD44^−, and CD24^+ neurons (mean±SEM, n≥3 per line).

The next data set deals with iPSC-derived astrocytes. The text has this: Scale bar, 10 μm. […] Astrocytic viability (blue line) was plotted against results from FIGS. 1D and S1A for statins (neuronal viability and pThr231Tau/Tau ratio).
A further data set relates to pTau. As to the kind of experiment: immunofluorescence of pTau epitopes in APP^dp1-6 neurons. The data set is classed as cell-based, human. To be noted: 10 μM, 5 days. The text has this: Vehicle alone controls (DMSO) are shown in black. […] SER, selective estrogen […] (n=4). […] NF—H, neurofilament H, axonal marker. The pThr231Tau antibody used is TG3, which detects a conformational epitope of pThr231Tau. Scale bar, 100 μm.

In data set [4] the test system is APP^dp1-6 neurons. As to the kind of experiment: cell viability of APP^dp1-6 iPSC-derived neurons. To be noted: dose range.
For data set [5] the following is noted: lower concentrations that sufficed to alter brain cholesterol metabolism; Mast et al., 2017b; cited from earlier work.
For data set [6] the following is noted: human, in vivo; cited from earlier work.
Data set [7] relates to APP^dp1-6 neurons.
[8] abbreviates: APP^dp1-6 neurons, 10 μM (FIG. 2C).
The mark [9] stands for this setting: 0.5 mM single dose at t=0, with atorvastatin 10 μM, 5 days.

“Also recorded” adds a separate entry of the source. Where two headings read alike, the source gives them in different places. Where a SMILES comes first, the peptide text is derived from it. The star is where a group is joined. Cbz = O=C(OCc1ccccc1)*

Protocol for Tau (PHF-1): FIGS. 7A-7D show PHF-1 staining of 4RTau-tg mouse sections. […] (FIG. 7A) Representative sections stained for PHF-1. Low power images show areas of enlargements where measurements were obtained. (FIGS. 7B-7D) Sections were analyzed with video bright field microscopy and immunoreactivity was quantified as corrected optical density. * indicated p<0.05 compared to vehicle treated 4RTau-tg mice, ** indicates p<0.005 compared to vehicle treated 4RTau-tg mice. Scale bar=200 μm in low power images and 20 μm in higher power images.
Following treatment, mice were sacrificed, brains removed and sectioned along the sagittal axis with half flash frozen and half drop fixed in 4% PFA. Fixed brains were sectioned with a vibratome (40 μm) and stained for GFAP, PHF1 (Tau) or Synaptophysin. Sections were imaged with a Leica microscope with a digital camera and analyzed with ImageJ for optical density (GFAP, Synaptophysin) or % area of neuropil (PHF1). Statistics were conducted with Prism6 using ANOVA one way analysis with Tukey-Kramer post hoc analysis.

Take `CC(C)C(O)CC[C@@H](C)[C@H]1CC[C@H]2[C@@H]3CC=C4C[C@@H](O)CC[C@]4(C)[C@H]3CC[C@]12C` (some centres unmarked) [24-hydroxycholesterol]: in the data set with pThr231Tau/tTau [1] (setting [8]), the pThr231Tau/tTau entry is listed as “reduced”.

Take `Clc1ccccc1CNCC1CCC(CNCc2ccccc2Cl)CC1` (centres unmarked) [AY-9944]: in the data set on APP^dp1-6 neurons [2] (5 μM), the 7DHC levels entry is “increased”, the 24-hydroxycholesterol in media entry was “decreased”, the desmosterol levels result is “reduced” and the free cholesterol levels result is reported as “reduced”. The pThr231Tau/tTau entry in the data set with pThr231Tau/tTau [1] (setting [8]) is listed as “did significantly decrease; also recorded: minor effect”.

Take `COc1ccc2cc3[n+](cc2c1OC)CCc1cc2c(cc1-3)OCO2` [Berberine]: the “Tau accumulation in the CA1 region of the hippocampus” value in the data set on Tau (PHF-1) is given as “no change”.

On to `COC(=O)[C@H](CC(C)C)NC(=O)c1ccc(NC[C@@H](N)CS)cc1-c1cccc2ccccc12` [GGTI-298], for which, in the data set on pThr231Tau/tTau [1] (setting [8]), the pThr231Tau/tTau result is reported as “did not significantly reduce”.

Regarding `Cc1cc(SCc2sc(-c3ccc(C(F)(F)F)cc3)nc2C)ccc1OCC(=O)O` [GW50156], in the data set on pThr231Tau/tTau [1] (setting [8]), the pThr231Tau/tTau result was “did not decrease”.

`CSc1cc(C)nc(SC)c1NC(=O)CN1CCN(CCSc2nc3ccccc3[nH]2)CC1` [K604]: the pThr231Tau/tTau entry is listed as “reduced” with pThr231Tau/tTau [3] and “reduced” in the data set on pThr231Tau/tTau [1] (APP^dp1-6 neurons, 25 μM, 5-day treatment (FIG. 2G)).

For the molecule `CC(C)C[C@@H](C=O)NC(=O)[C@H](CC(C)C)NC(=O)[C@H](CC(C)C)NC(=O)OCc1ccccc1` [MG132] (Cbz-Leu-Leu-Leu-aldehyde), the “abrogation of the atorvastatin-induced decrease in pThr231Tau/tTau ratio” value in the data set on pThr231Tau/tTau [1] (5 μM co-treated with atorvastatin 10 μM) is given as “abrogated the decrease”.

`C[C@@](O)(CCOP(=O)(O)OP(=O)(O)O)CC(=O)O` [MVA-5PP, mevalonate-5-pyrophosphate]: the “rescue of the effect of atorvastatin on pThr231Tau/tTau” value (“rescue … on pThr231Tau/tTau” below) in the data set on pThr231Tau/tTau [1] is listed as “rescued”.

As for `C[C@@](O)(CCOP(=O)(O)O)CC(=O)O` [MVP, mevalonate-5-phosphate], the “rescue … on pThr231Tau/tTau” value in the data set on pThr231Tau/tTau [1] (setting [9]) is “rescued”.

Consider `O=S(=O)(c1ccccc1)N(CC(F)(F)F)c1ccc(C(O)(C(F)(F)F)C(F)(F)F)cc1` [T091317], for which, in the data set with APP^dp1-6 neurons [2] (10 μM), the 24-hydroxycholesterol in media result is “unaltered” and the desmosterol levels entry is “decreased”. Further, in the data set with pThr231Tau/tTau [1] (setting [8]), the pThr231Tau/tTau result is “reduced”.

Turning to `F/C(COc1ccc2c(c1)[nH]c1ccccc12)=C1/CN2CCC1CC2` [YM-53601], in the data set on pThr231Tau/tTau [1] (APP^dp1-6 neurons, 20 μM (FIG. 2C)), the pThr231Tau/tTau entry is listed as “did significantly decrease”.

For `CC(C)c1c(C(=O)Nc2ccccc2)c(-c2ccccc2)c(-c2ccc(F)cc2)n1CC[C@@H](O)C[C@@H](O)CC(=O)O` [atorvastatin], in the data set on APP^dp1-6 neurons [2] (10 μM), the 7DHC levels result is given as “trended towards decreased”, the 24-hydroxycholesterol in media result is recorded as “unaltered” and the desmosterol levels result was “reduced”. In the data set on pThr231Tau/tTau [3], the pThr231Tau/tTau entry is recorded as “reduced”. In addition, the Aβ42 secretion result with Aβ42 secretion is recorded as “did not affect”. The astrocyte viability result with iPSC-derived astrocytes is on record as “induced major astrocyte cell-death”. Besides, in the data set on pTau, the pS202/T205Tau by immunofluorescence result is “reduced”, the pS396/S404Tau by immunofluorescence entry was “reduced” and the “pThr231 phosphorylation-dependent conformational Tau epitope (TG3) by immunofluorescence” value was “reduced”. Moreover, the “cell viability or neuronal number” value in the data set with APP^dp1-6 neurons [4] was “slightly cytotoxic at higher concentrations”. In addition, the “pThr231Tau/Tau after removal of compound” value in the data set with pThr231Tau/tTau [1] (removal after five days of treatment) is recorded as “recovery”.

With `CC(C)c1cc(C(C)C)c(CC(=O)NS(=O)(=O)Oc2c(C(C)C)cccc2C(C)C)c(C(C)C)c1` [avasimibe], the pThr231Tau/tTau entry in the data set with pThr231Tau/tTau [3] is reported as “reduced”; with pThr231Tau/tTau [1] (APP^dp1-6 neurons, 10 μM, 5-day treatment (FIG. 2G)), “reduced”.

`O=C1Nc2ccc(Cl)cc2[C@@](C#CC2CC2)(C(F)(F)F)O1` [efavirenz, (S)-6-chloro-(cyclopropylethynyl)-1,4-dihydro-4-(trifluoromethyl)-2H-3,1-benzoxazin-2-one]: the “adverse effects in mice” value in data set [5] is reported as “Major adverse effects were not observed”. Moreover, in data set [6], the “adverse effects in HIV patients” value is reported as “significant adverse effects that include neurotoxicity”. In addition, the astrocyte viability result in the data set with iPSC-derived astrocytes is reported as “did not affect astrocyte viability even at high doses”.

Take `CC[C@H](C)C(=O)O[C@H]1C[C@@H](C)C=C2C=C[C@H](C)[C@H](CC[C@@H]3C[C@@H](O)CC(=O)O3)[C@H]21` [lovastatin]: the “cell viability or neuronal number” value in the data set on APP^dp1-6 neurons [4] was “minor effects”. In addition, in the data set on pThr231Tau/tTau [1] (APP^dp1-6 neurons), the “pThr231Tau/tTau, dosage effect” value is “reduced pThr231Tau/tTau in a dose-dependent manner”.

Take `CC[C@H](C)C(=O)O[C@H]1CCC=C2C=C[C@H](C)[C@H](CC[C@@H]3C[C@@H](O)CC(=O)O3)[C@H]21` [mevastatin]: the “cell viability or neuronal number” value with APP^dp1-6 neurons [7] is “minor effects”. Moreover, in the data set with pThr231Tau/tTau [1] (APP^dp1-6 neurons), the “pThr231Tau/tTau, dosage effect” value was “reduced pThr231Tau/tTau in a dose-dependent manner”.

Turning to `C=C1[C@@H](O)[C@@H]2O[C@]3(CC[C@H](/C=C/[C@@H](C)[C@@H]4CC(C)=C[C@@]5(O[C@H](C[C@@](C)(O)C(=O)O)CC[C@H]5O)O4)O3)CC[C@H]2O[C@@H]1[C@@H](O)C[C@H](C)[C@H]1O[C@@]2(CCCCO2)CC[C@H]1C` [okadaic acid], in the data set with pThr231Tau/tTau [1] (1.25 nM co-treated with atorvastatin 10 μM), the “abrogation of the atorvastatin-induced decrease in pThr231Tau/tTau ratio” value is given as “Only proteasomal inhibition abrogated the decrease”.

As to `CC(C)c1nc(N(C)S(C)(=O)=O)nc(-c2ccc(F)cc2)c1/C=C/[C@@H](O)C[C@@H](O)CC(=O)O` [rosuvastatin], the “pThr231Tau/tTau, confirmed non-toxic screening hit” value in the data set on pThr231Tau/tTau [1] (APP^dp1-6 neurons, 5 μM, 5 days) is listed as “hit-list”.

Regarding mevalonate [MVA], the “rescue … on pThr231Tau/tTau” value in the data set on pThr231Tau/tTau [1] (setting [9]) is recorded as “rescued”.
